Assays:
[1] = Critical wavelength (λcrit), approximate in-house measurement; assay type: physicochemical; settings: values only approximate
Excerpt: As the precise test for critical wavelength was unable to be replicated exactly by the inventors due to the need for specialist equipment and a specific calibration of the spectrophotometer, these values are only approximate to a degree. […] This represents a highly useful result and so, compounds based around this benzoyl substitution pattern shown, are especially preferred.

[2] = literature value, standardised test; cited from earlier work
[3] = UV absorption properties (λmax, molar extinction coefficient ε, efficiency E 1%, 1 cm); assay type: physicochemical; settings: for ε (molar extinction coefficient): values in order of the λmax values

Structure (SMILES) | critical wavelength [1] [nm] | critical wavelength, reported [2] [nm] | UV λmax [3] [nm] | ε (molar extinction coefficient) [3] [M⁻¹ cm⁻¹] | melting point [°C]
COc1ccc(C(=O)CC(=O)c2ccc(C(C)(C)C)cc2)cc1 [Avobenzone, reference compound] | 378 | 380 |  |  | 
CC(C)(C)Oc1ccc(C(=O)C2=CN(C(C)(C)C)CCC2(C)C)cc1 [Compound 158, (4-(tert-butoxy)phenyl)(1-(tert-butyl)-4,4-dimethyl-1,4,5,6-tetrahydropyridin-3-yl)methanone] |  |  | 317 | 32556 | 98 to 101
CC1(C)CCN(C(C)(C)C)C=C1C(=O)c1ccc(C(=O)O)cc1 [Compound 160, 4-(1-(tert-butyl)-4,4-dimethyl-1,4,5,6-tetrahydropyridine-3-carbonyl)benzoic acid] |  |  | 317 | 17300 | 80 to 83
